Measurements taken from patent US8183252B2, “Heterocyclic aspartyl protease inhibitors” (Schering Corporation, priority 2007, dated 2012).

The molecules below were run against T1, human BACE1 (sproBACE1) (Homo sapiens, UniProt P56817) (assay: BACE-1 Peptide Hydrolysis Assay (HTRF)). Conditions: not given.
T1 construct: sBACE1, corresponding to amino acids 1-454; made in house; host or cells: Sf9 insect cells (baculovirus), secreted into the medium
Assay type: biochemical
From the text: A HindIII/PmeI fragment from pCDNA4-sBACE1myc/His was blunt ended using Klenow and subcloned into the Stu I site of PFASTBACI(A) (Invitrogen). A sBACE1mycHis recombinant bacmid was generated by transposition in DH10Bac cells (GIBCO/BRL). Subsequently, the sBACE1mycHis bacmid construct was transfected into sf9 cells using CellFectin (Invitrogen, San Diego, Calif.) in order to generate recombinant baculovirus. […] Five milliliters of high titer plaque purified sBACEmyc/His virus was used to infect 1 L of logarithmically growing sf9 cells for 72 hours. Intact cells were pelleted by centrifugation at 3000×g for 15 minutes. The supernatant, containing secreted sBACE1, was collected and diluted 50% v/v with 100 mM HEPES, pH 8.0. The diluted medium was loaded onto a Q-sepharose column. The Q-sepharose column was washed with Buffer A (20 mM HEPES, pH 8.0, 50 mM NaCl).
Proteins, were eluted from the Q-sepharose column with Buffer B (20 mM HEPES, pH 8.0, 500 mM NaCl). The protein peaks from the Q-sepharose column were pooled and loaded onto a Ni-NTA agarose column. The Ni-NTA column was then washed with Buffer C (20 mM HEPES, pH 8.0, 500 mM NaCl). Bound proteins were then eluted with Buffer D (Buffer C+250 mM imidazole).
Reactions were initiated by addition of substrate in a 5 μl aliquot resulting in a total volume of 25 μl. After 3 hr at 30° C. reactions were terminated by addition of an equal volume of 2× stop buffer containing 50 mM Tris-HCl pH 8.0, 0.5 M KF, 0.001% Brij-35, 20 μg/ml SA-XL665 (cross-linked allophycocyanin protein coupled to streptavidin; CIS-Bio International, France) (0.5 μg/well). Plates were shaken briefly and spun at 1200×g for 10 seconds to pellet all liquid to the bottom of the plate before the incubation.
Y=Bottom+(Top-Bottom)/(1+10^((LogEC50−X)*Hill Slope)); X is the logarithm of concentration of I, Y is the percent change in ratio and Y starts at bottom and goes to top with a sigmoid shape.

T1 sequence (P56817 22-454): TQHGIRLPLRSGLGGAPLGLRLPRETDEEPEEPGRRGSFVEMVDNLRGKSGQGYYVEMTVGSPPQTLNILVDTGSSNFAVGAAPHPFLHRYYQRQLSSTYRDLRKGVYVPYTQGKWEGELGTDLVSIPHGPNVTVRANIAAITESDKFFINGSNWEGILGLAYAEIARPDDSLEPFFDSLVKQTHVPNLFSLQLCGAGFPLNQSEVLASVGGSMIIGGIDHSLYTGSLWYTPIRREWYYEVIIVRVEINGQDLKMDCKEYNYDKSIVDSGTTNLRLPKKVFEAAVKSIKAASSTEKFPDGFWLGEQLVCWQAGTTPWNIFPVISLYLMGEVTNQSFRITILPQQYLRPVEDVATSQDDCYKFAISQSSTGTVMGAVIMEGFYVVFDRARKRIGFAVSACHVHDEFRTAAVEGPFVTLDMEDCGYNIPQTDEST

Row | Compound | Ki
1 | CCn1nccc1Nc1cccc(C2(C)NC(=N)N(CC3CCN(C(C)=O)CC3)C2=O)c1 (racemic) | < 5 µM
2 | CC(=O)N1CCC(CN2C(=N)NC(C)(c3cccc(-c4ccoc4)c3)C2=O)CC1 (stereo not drawn) | < 5 µM
3 | CC(=O)N1CCC(CN2C(=N)NC(C)(c3cccc(-c4cccc(O)c4)c3)C2=O)CC1 (stereo not drawn) | < 5 µM

Same assay, conditions: read-out: BACE-1 Ki

Row | Compound | Ki
4 | CN1C(=N)NC(C)(c2cc(-c3cccc(C#N)c3)cs2)C(CCN2CCCCC2)C1=O (stereo not drawn) | < 5 µM
5 | CCCN(CCC)C(=O)c1cccc(CN2C(=N)NC(C)(c3cccc(Br)c3)C2=O)c1 (racemic) | < 5 µM
6 | Cc1cncc(-c2cccc(C3(C)NC(=N)N(C)C3=O)c2)c1 (racemic) | < 5 µM
7 | CCC[C@H]1C(=O)N(C)C(=N)N[C@]1(C)c1cc(-c2cccc(C#N)c2)cs1 | < 5 µM
8 | CCCC(=O)N1CCC[C@H](CN2C(=N)NC(c3ccccc3)(c3ccccc3)C2=O)C1 | < 5 µM
9 | CN1C(=N)N[C@](CCC2CCCCC2)(C[C@H]2CCC[C@H](N3CC[C@H](O)C3)C2)C1=O | < 5 µM
10 | CC(C)S(=O)(=O)Nc1ccc(CN2C(=N)NC(c3ccccc3)(c3ccccc3)C2=O)cc1 [2-propanesulfonamide, N-[4-[(2-imino-5-oxo-4,4-diphenyl-1-imidazolidinyl)methyl]phenyl]-] | < 5 µM
11 | N=C1NC(c2ccccc2)(c2ccccc2)C(=O)N1Cc1ccoc1 | < 5 µM
12 | Cc1c(-c2ccc(F)c(C#N)c2)csc1[C@]1(C)CC(=O)N(C)C(=N)N1 | < 5 µM
13 | CC(=O)N[C@@H]1CCC[C@H](C[C@@]2(CCc3ccccc3)NC(=N)N(C)C2=O)C1 | < 5 µM
14 | CCc1csc([C@]2(C)CC(=O)N(C)C(=N)N2)c1 | < 5 µM
15 | COC1C(=O)N(C)C(=N)NC1(C)c1cc(-c2ccc(F)c(C#N)c2)cs1 (single isomer, unassigned) | < 5 µM
16 | CN1C(=N)NC(c2cccc(Br)c2)(C2CCC2)C1=O (stereo not drawn) [5-(3-BROMOPHENYL)-5-CYCLOBUTYL-2-IMINO-3-METHYL-4-IMIDAZOLIDINONE] | < 5 µM
17 | Cc1c(-c2cccc(C#N)c2)csc1[C@]1(C)CC(=O)N(C)C(=N)N1 | < 5 µM
18 | CN1C(=N)N[C@@](c2cccc(-c3cc(Cl)cnc3F)c2)(C2CC2)C1=O | < 5 µM
19 | CN1C(=N)NC(c2ccccc2)(c2cccc(NC(=O)c3ccoc3)c2)C1=O (racemic) | < 5 µM
20 | N=C1NC(c2ccccc2)(c2ccccc2)C(=O)N1CC1CCN(S(=O)(=O)c2ccccc2)CC1 [piperidine, 4-[(2-imino-5-oxo-4,4-diphenyl-1-imidazolidinyl)methyl]-1-(phenylsulfonyl)-] | < 5 µM
21 | CN1C(=N)NC(C)(c2cc(-c3cccc(C#N)c3)cs2)C(n2cccn2)C1=O (single isomer, unassigned) | < 5 µM
22 | CCN1C(=N)N[C@](C)(c2cc(-c3cccc(C#N)c3)cs2)CC1=O | < 5 µM
23 | CN1C(=N)N[C@](C)(c2ccc3c(cnn3CC3CCCC3)c2)CC1=O | < 5 µM
24 | CN1C(=N)N[C@](C)(c2scc(C#N)c2Cl)CC1=O | < 5 µM
25 | N=C1NC(c2ccccc2)(c2ccccc2)C(=O)N1CC1CCN(C(=O)CCN)CC1 | < 5 µM
26 | CN1C(=N)N[C@@](c2cccc(-c3cccc(CO)c3)c2)(C2CC2)C1=O | < 5 µM
27 | C[C@@]1(c2cc(-c3cccc(C#N)c3)cs2)CC(=O)N(Cc2ccncc2)C(=N)N1 | < 5 µM

More lines, now with the values ahead:

Row | Ki | Compound
28 | < 5 µM | CN1C(=N)N[C@](C)(c2ccnc(-c3cccnc3F)c2)CC1=O
29 | < 5 µM | CN1C(=N)N[C@](C)(c2ccc3c(c2)c(-c2cccs2)cn3C)CC1=O
30 | < 5 µM | COc1cc(C#N)cc(-c2cc([C@@]3(C)NC(=N)N(C)C(=O)[C@@H]3C)sc2C)c1
31 | < 5 µM | CCc1sc([C@@]2(C)NC(=N)N(C)C(=O)[C@@H]2CC)cc1-c1cccc(C#N)c1
32 | < 5 µM | CN1C(=N)NC(c2ccccc2)(c2cccc(-c3nccnc3Cl)c2)C1=O (racemic)
33 | < 5 µM | CCC(C)N1C(=N)NC(c2cccc(-c3cccc(Cl)c3)c2)(C2CC2)C1=O (stereo not drawn) [4-imidazolidinone, 5-(3′-chloro[1,1′-biphenyl]-3-yl)-5-cyclopropyl-2-imino-3-(1-methylpropyl)-]
34 | < 5 µM | N=C1NC(c2ccccc2)(c2ccccc2)C(=O)N1CC1CCN(C(=O)Cc2cccnc2)CC1
35 | < 5 µM | CN1C(=N)N[C@](C)(c2cc(C#N)cs2)[C@@H](c2ccc(C3CC3)cc2)C1=O
36 | < 5 µM | CC(=O)N1CCC(CN2C(=N)NC(C)(c3cccc(-c4cccc(C(=O)NCc5ccco5)c4)c3)C2=O)CC1 (stereo not drawn)
37 | < 5 µM | CN1C(=N)NC(c2cccc(Br)c2)(C2(C)CC2)C1=O (stereo not drawn) [5-(3-BROMOPHENYL)-2-IMINO-3-METHYL-5-(1-METHYLCYCLOPROPYL)-4-IMIDAZOLIDINONE]
38 | < 5 µM | CN1C(=N)N[C@](C)(c2cc(-c3cncc(Cl)n3)cs2)CC1=O
39 | < 5 µM | COc1ccc2c(c1)CC[C@@]21C(=O)N(C)C(=N)N[C@]1(C)c1cc(-c2cccc(C#N)c2)cs1
40 | < 5 µM | CN1C(=N)NC(c2ccccc2)(c2cc(-c3cncnc3)cs2)C1=O (stereo not drawn)
41 | < 5 µM | CN1C(=N)NC(c2ccc(-c3ccc(F)c(C#N)c3)s2)(C2CC2)CC1=O (stereo not drawn)
42 | < 5 µM | CN1C(=N)NC(C)(c2cc(-c3ccc(F)c(C#N)c3)cs2)C(Br)C1=O (stereo not drawn)
43 | < 5 µM | Cc1nn(C)c2sc([C@]3(C)CC(=O)N(C)C(=N)N3)cc12
44 | < 5 µM | CN1C(=N)N[C@](C)(c2cc(-c3cccc(C#N)c3)cs2)[C@@H](c2csc3ccccc23)C1=O

Row | Ki | Compound
45 | < 5 µM | CN1C(=N)NC(c2ccccc2)(c2cccc(NC(=O)CC3CC3)c2)C1=O (racemic)
46 | < 5 µM | CN1C(=N)N[C@](CCc2ccccc2)(C[C@H]2CCC[C@@H](Nc3ccccc3)C2)C1=O
47 | < 5 µM | CN1C(=N)N[C@](C)(c2ccc(F)cc2F)[C@@H](C2CCN(c3ccc(F)cc3)CC2)C1=O
48 | < 5 µM | N=C1NC(c2cccc(-c3cccc(Cl)c3)c2)(C2CC2)C(=O)N1C1CCC1 (stereo not drawn) [4-imidazolidinone, 5-(3′-chloro[1,1′-biphenyl]-3-yl)-3-cyclobutyl-5-cyclopropyl-2-imino-]
49 | < 5 µM | CN1C(=N)NC(c2ccccc2)(c2cccc(NC(=O)c3ccccc3)c2)C1=O (racemic)
50 | < 5 µM | CN1C(=N)N[C@](CCC2CCCCC2)(C[C@H]2CCC[C@H](NCCc3ccccc3)C2)C1=O
51 | < 5 µM | CCOc1cc(F)cc(-c2csc([C@]3(C)CC(=O)N(C)C(=N)N3)c2)c1
52 | < 5 µM | CN1C(=N)NC(C)(c2cccc(-c3cc(Cl)ccc3CCO)c2)C1=O (stereo not drawn)
53 | < 5 µM | CCCC(=O)Nc1cccc(CN2C(=N)NC(c3ccccc3)(c3ccccc3)C2=O)c1 [BUTANAMIDE, N-[3-[(2-IMINO-5-OXO-4,4-DIPHENYL-1-IMIDAZOLIDINYL)METHYL]PHENYL]-]
54 | < 5 µM | CCCCS(=O)(=O)N1CCC(CN2C(=N)NC(c3ccccc3)(c3ccccc3)C2=O)CC1 [piperidine, 1-(butylsulfonyl)-4-[(2-imino-5-oxo-4,4-diphenyl-1-imidazolidinyl)methyl]-]
55 | < 5 µM | CN1C(=N)N[C@](C)(c2ccc(F)cc2F)CC1=O
56 | < 5 µM | COc1cncc(-c2cccc(C3(C)NC(=N)N(CC4CC(=O)N(Cc5ccccc5)C4)C3=O)c2)c1 (stereo not drawn)
57 | < 5 µM | CN1C(=N)N[C@](CCC2CCCCC2)(C[C@H]2CCC[C@@H](NC(=O)c3ccnnc3)C2)C1=O
58 | < 5 µM | CN1C(=N)N[C@](C)(c2cc(-c3cccc(OC(F)(F)F)c3)ccn2)CC1=O
59 | < 5 µM | COCC1CCCN1C(=O)c1cncc(CN2C(=N)NC(c3cccc(Br)c3)(C3CC3)C2=O)c1 (stereo not drawn)
60 | < 5 µM | CC(C)Oc1cc(Cl)cc(-c2csc([C@]3(C)CC(=O)N(C)C(=N)N3)c2)c1
